Test results: PubChem BioAssay AID248 (DTP/NCI, 2004)
“And” between values parts separate entries of the source, which are not always exact repeats. Equal entries are not always repeated. Toxic doses and inconclusive results are not listed. No stated cut-off is given here; in the data, active means T/C of 150% or more; inactive means T/C below 125%.

System: L1210 leukemia ip in BDF1 mice, survival T/C
Assay: NCI In Vivo Anticancer Drug Screen. Data for tumor model L1210 Leukemia (intraperitoneal) in B6D2F1 (BDF1) mice
Settings: endpoint: mean survival time, higher = longer survival
How it was run: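 Read-out is survival time, reported as the treated-group measurement over the vehicle-control measurement.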

[1] = dose: 100.0 mg/kg/injection, schedule: Q01DX009 (ip), vehicle: Klucel (hydroxypropylcellulose) (HPC)
[2] = dose: 200.0 mg/kg/injection, schedule: Q01DX009 (ip), vehicle: Klucel (hydroxypropylcellulose) (HPC)
[3] = dose: 100.0 mg/kg/injection, schedule: Q01DX009 (ip), vehicle: saline with Tween-80
[4] = dose: 200.0 mg/kg/injection, schedule: Q01DX009 (ip), vehicle: saline with Tween-80
[5] = dose: 400.0 mg/kg/injection, schedule: Q01DX009 (ip), vehicle: saline with Tween-80
[6] = dose: 50.0 mg/kg/injection, schedule: Q01DX001 (ip), vehicle: carboxymethylcellulose (CMC)
[7] = dose: 100.0 mg/kg/injection, schedule: Q01DX001 (ip), vehicle: carboxymethylcellulose (CMC)
[8] = dose: 200.0 mg/kg/injection, schedule: Q01DX001 (ip), vehicle: carboxymethylcellulose (CMC)
[9] = dose: 100.0 mg/kg/injection, schedule: Q04DX002 (ip), vehicle: Klucel (hydroxypropylcellulose) (HPC)
[10] = dose: 200.0 mg/kg/injection, schedule: Q04DX002 (ip), vehicle: Klucel (hydroxypropylcellulose) (HPC)
[11] = dose: 400.0 mg/kg/injection, schedule: Q04DX002 (ip), vehicle: Klucel (hydroxypropylcellulose) (HPC)
[12] = dose: 100.0 mg/kg/injection, schedule: Q04DX003 (ip), vehicle: saline with Tween-80
[13] = dose: 200.0 mg/kg/injection, schedule: Q04DX003 (ip), vehicle: saline with Tween-80
[14] = dose: 400.0 mg/kg/injection, schedule: Q04DX003 (ip), vehicle: saline with Tween-80
[15] = dose: 400.0 mg/kg/injection, schedule: Q01DX009 (ip), vehicle: Klucel (hydroxypropylcellulose) (HPC)
[16] = dose: 100.0 mg/kg/injection, schedule: Q01DX001 (ip), vehicle: saline
[17] = dose: 200.0 mg/kg/injection, schedule: Q01DX001 (ip), vehicle: saline
[18] = dose: 400.0 mg/kg/injection, schedule: Q01DX001 (ip), vehicle: saline

Measured: T/C

CC(CO)(CO)N1C(=O)c2cccc3cc([N+](=O)[O-])cc(c23)C1=O
inactive: [1] 112 % of control | [2] 107 % of control

N#CSCc1ccc(Cl)cc1
inactive: dose: 25.0 mg/kg/injection, schedule: Q01DX009 (ip), vehicle: saline with Tween-80 92 % of control

CCCCNC(=O)Nc1cc(Cl)ccc1C
inactive: dose: 3.12 mg/kg/injection, schedule: Q01DX009 (ip), vehicle: Klucel (hydroxypropylcellulose) (HPC) 97 % of control | dose: 6.25 mg/kg/injection, schedule: Q01DX009 (ip), vehicle: Klucel (hydroxypropylcellulose) (HPC) 92 % of control | dose: 12.5 mg/kg/injection, schedule: Q01DX009 (ip), vehicle: Klucel (hydroxypropylcellulose) (HPC) 101 % of control and 90 % of control | dose: 25.0 mg/kg/injection, schedule: Q01DX009 (ip), vehicle: Klucel (hydroxypropylcellulose) (HPC) 89 % of control | [1] 94 % of control and 86 % of control | dose: 100.0 mg/kg/injection, schedule: Q04DX003 (ip), vehicle: Klucel (hydroxypropylcellulose) (HPC) 95 % of control | dose: 200.0 mg/kg/injection, schedule: Q04DX003 (ip), vehicle: Klucel (hydroxypropylcellulose) (HPC) 90 % of control | dose: 400.0 mg/kg/injection, schedule: Q04DX003 (ip), vehicle: Klucel (hydroxypropylcellulose) (HPC) 90 % of control

COC1OC(COC(=O)c2ccccc2)C(OC(=O)c2ccccc2)C(OC(=O)c2ccccc2)C1OC(=O)c1ccccc1 (stereo not given)
inactive: [3] 116 % of control | [4] 107 % of control | [5] 107 % of control

CC(Cl)CN1Cc2ccccc2CCc2ccccc2C1 (stereo not given)
inactive: dose: 25.0 mg/kg/injection, schedule: Q04DX002 (ip), vehicle: Klucel (hydroxypropylcellulose) (HPC) 101 % of control | dose: 50.0 mg/kg/injection, schedule: Q04DX002 (ip), vehicle: Klucel (hydroxypropylcellulose) (HPC) 92 % of control

CCCCC(=O)N(CC(C)C)CC(C)C
inactive: dose: 25.0 mg/kg/injection, schedule: Q04DX002 (ip), vehicle: carboxymethylcellulose (CMC) 95 % of control | [6] 95 % of control | dose: 50.0 mg/kg/injection, schedule: Q01DX009 (ip), vehicle: carboxymethylcellulose (CMC) 98 % of control and 120 % of control | dose: 50.0 mg/kg/injection, schedule: Q04DX002 (ip), vehicle: carboxymethylcellulose (CMC) 100 % of control and 102 % of control | dose: 50.0 mg/kg/injection, schedule: Q04DX003 (ip), vehicle: carboxymethylcellulose (CMC) 101 % of control | [7] 97 % of control | dose: 100.0 mg/kg/injection, schedule: Q01DX009 (ip), vehicle: carboxymethylcellulose (CMC) 95 % of control and 103 % of control | dose: 100.0 mg/kg/injection, schedule: Q04DX002 (ip), vehicle: carboxymethylcellulose (CMC) 98 % of control and 103 % of control and 105 % of control | dose: 100.0 mg/kg/injection, schedule: Q04DX003 (ip), vehicle: carboxymethylcellulose (CMC) 95 % of control | [8] 88 % of control | dose: 200.0 mg/kg/injection, schedule: Q01DX009 (ip), vehicle: carboxymethylcellulose (CMC) 103 % of control and 92 % of control | dose: 200.0 mg/kg/injection, schedule: Q04DX002 (ip), vehicle: carboxymethylcellulose (CMC) 92 % of control | dose: 200.0 mg/kg/injection, schedule: Q04DX003 (ip), vehicle: carboxymethylcellulose (CMC) 101 % of control | dose: 400.0 mg/kg/injection, schedule: Q04DX002 (ip), vehicle: carboxymethylcellulose (CMC) 102 % of control

O=C(COc1ccc(Br)cc1)Nc1ccc(Br)cc1
inactive: [9] 95 % of control | [10] 95 % of control | [11] 89 % of control

COC(=O)CCNc1ccccc1
inactive: [3] 108 % of control | [4] 100 % of control | [5] 102 % of control

C=C(Br)CNS(=O)(=O)c1ccc(OC)cc1
inactive: [12] 92 % of control | [13] 101 % of control | [14] 94 % of control

Cc1ccc(S(=O)(=O)OCCc2ccccc2)cc1
inactive: [3] 100 % of control | [12] 102 % of control | [4] 100 % of control | [13] 102 % of control | [5] 96 % of control | [14] 100 % of control

S=C1NC(c2cccc(Cl)c2)N2C(=S)NC(c3cccc(Cl)c3)N12 (stereo not given)
inactive: dose: 25.0 mg/kg/injection, schedule: Q01DX009 (ip), vehicle: gum acacia 95 % of control | dose: 50.0 mg/kg/injection, schedule: Q01DX009 (ip), vehicle: gum acacia 95 % of control | dose: 100.0 mg/kg/injection, schedule: Q01DX009 (ip), vehicle: gum acacia 101 % of control | dose: 100.0 mg/kg/injection, schedule: Q04DX003 (ip), vehicle: gum acacia 101 % of control | dose: 200.0 mg/kg/injection, schedule: Q01DX009 (ip), vehicle: gum acacia 88 % of control | dose: 200.0 mg/kg/injection, schedule: Q04DX003 (ip), vehicle: gum acacia 93 % of control | dose: 400.0 mg/kg/injection, schedule: Q01DX009 (ip), vehicle: gum acacia 87 % of control | dose: 400.0 mg/kg/injection, schedule: Q04DX003 (ip), vehicle: gum acacia 97 % of control

CC(=O)c1ccccc1NC(=O)c1ccccc1F
inactive: [1] 98 % of control | [2] 113 % of control | [15] 95 % of control

O=C(CC(CC(=O)c1ccccc1)c1ccccc1)c1ccccc1
inactive: [6] 91 % of control | [7] 94 % of control | [8] 94 % of control | dose: 400.0 mg/kg/injection, schedule: Q01DX001 (ip), vehicle: carboxymethylcellulose (CMC) 94 % of control

Cc1ccc(O)c[n+]1[O-]
inactive: [16] 94 % of control | [1] 103 % of control | dose: 100.0 mg/kg/injection, schedule: Q04DX003 (ip), vehicle: saline 101 % of control | [17] 97 % of control | [2] 94 % of control | dose: 200.0 mg/kg/injection, schedule: Q04DX003 (ip), vehicle: saline 97 % of control | [18] 100 % of control | [15] 103 % of control | dose: 400.0 mg/kg/injection, schedule: Q04DX003 (ip), vehicle: saline 103 % of control

CCOC(=O)CSc1ccc2c3c(cccc13)C(=O)OC2=O
inactive: dose: 20.0 mg/kg/injection, schedule: Q01DX009 (ip), vehicle: other 104 % of control | dose: 40.0 mg/kg/injection, schedule: Q01DX009 (ip), vehicle: other 98 % of control | dose: 80.0 mg/kg/injection, schedule: Q01DX009 (ip), vehicle: other 91 % of control | dose: 87.5 mg/kg/injection, schedule: Q01DX009 (ip), vehicle: other 92 % of control

OCCN1CCN(CCCN2c3ccccc3Sc3ccc(Cl)cc32)CC1
inactive: dose: 6.25 mg/kg/injection, schedule: Q01DX001 (ip), vehicle: Klucel (hydroxypropylcellulose) (HPC) 97 % of control | dose: 12.5 mg/kg/injection, schedule: Q01DX001 (ip), vehicle: Klucel (hydroxypropylcellulose) (HPC) 105 % of control | dose: 25.0 mg/kg/injection, schedule: Q01DX001 (ip), vehicle: Klucel (hydroxypropylcellulose) (HPC) 111 % of control | [10] 108 % of control

O=C(Nc1cccc(C(F)(F)F)c1)N1CCN(c2ccccc2)CC1
inactive: [1] 103 % of control | [2] 96 % of control | [15] 106 % of control

CCOC(=O)/C=C(\C)C(C)(C)C(C)=O
inactive: [16] 90 % of control | [17] 101 % of control | [18] 98 % of control

O=C(Nc1ccccc1Cl)N1CCOCC1
inactive: [9] 106 % of control | [10] 103 % of control | [11] 87 % of control

Cc1c(C)c2c(c(C)c1O)CCC(C)(C)O2
inactive: dose: 50.0 mg/kg/injection, schedule: Q01DX009 (ip), vehicle: Klucel (hydroxypropylcellulose) (HPC) 97 % of control | [1] 100 % of control | [2] 103 % of control

OC(CCl)COCC#Cc1ccccc1 (stereo not given)
inactive: dose: 100.0 mg/kg/injection, schedule: Q01DX009 (ip), vehicle: saline sonified 93 % of control | dose: 100.0 mg/kg/injection, schedule: Q04DX003 (ip), vehicle: saline sonified 101 % of control | dose: 200.0 mg/kg/injection, schedule: Q01DX009 (ip), vehicle: saline sonified 96 % of control | dose: 200.0 mg/kg/injection, schedule: Q04DX003 (ip), vehicle: saline sonified 93 % of control | dose: 400.0 mg/kg/injection, schedule: Q01DX009 (ip), vehicle: saline sonified 93 % of control | dose: 400.0 mg/kg/injection, schedule: Q04DX003 (ip), vehicle: saline sonified 92 % of control
